Reference: publication PMC10819430, “Binding Affinity and Mechanism of Six PFAS with Human Serum Albumin: Insights from Multi-Spectroscopy, DFT and Molecular Dynamics Approaches” (Toxics, 2024)
Several values for one entry are separate records, joined by “and”; a condition that tells them apart may be missing. Equal values may be shown once.

Key:
HSA [1] = biological target: T1, HSA (Homo sapiens, UniProt P02768); assay: Competitive probe experiment (warfarin, ibuprofen, lidocaine); assay type: binding
T1 construct: HSA (≥96%) and six PFAS were all purchased from Aladdin Chemicals (Shanghai, China); purchased Aladdin Chemicals (Shanghai, China)
T1 sequence (P02768 25-609): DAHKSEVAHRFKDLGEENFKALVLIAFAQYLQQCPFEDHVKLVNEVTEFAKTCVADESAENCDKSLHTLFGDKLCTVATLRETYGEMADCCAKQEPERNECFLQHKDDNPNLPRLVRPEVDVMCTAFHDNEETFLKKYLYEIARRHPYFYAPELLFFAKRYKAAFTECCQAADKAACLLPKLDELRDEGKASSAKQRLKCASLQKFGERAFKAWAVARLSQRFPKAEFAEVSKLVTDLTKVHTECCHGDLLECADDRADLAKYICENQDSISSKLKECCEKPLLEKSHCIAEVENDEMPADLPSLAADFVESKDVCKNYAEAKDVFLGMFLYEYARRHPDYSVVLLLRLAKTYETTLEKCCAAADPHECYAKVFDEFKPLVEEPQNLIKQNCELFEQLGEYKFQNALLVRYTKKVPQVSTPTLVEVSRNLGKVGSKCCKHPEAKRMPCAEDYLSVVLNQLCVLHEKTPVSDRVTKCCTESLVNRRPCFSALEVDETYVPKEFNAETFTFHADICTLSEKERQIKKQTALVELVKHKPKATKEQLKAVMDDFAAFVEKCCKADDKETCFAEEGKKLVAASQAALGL
Description: Competitive probe experiments are commonly used to identify specific binding sites in the structure of proteins. Three probe molecules known to bind to distinct binding sites on HSA were selected: warfarin (subdomain IIA), ibuprofen (subdomain IIIA), and lidocaine (subdomain IIB). These probe molecules would compete with PFAS for the same protein sites when binding with HSA. The potential binding sites can be inferred by monitoring and comparing changes in fluorescence intensity when probe molecules are present.

HSA [2] = biological target: T1, HSA; assay: Circular dichroism (CD) spectrum, secondary structure of HSA; conditions: HSA:PFAS 1:18, 298 K; for HSA secondary structure: β-Sheet: HSA alone 4.9; for HSA secondary structure: β-Turn: HSA alone 16.9; for HSA secondary structure: Random Coil: HSA alone 36.7; for HSA secondary structure: α-Helix: HSA alone 41.6
Description: CD measurements (190–260 nm) were taken before and after the addition of PFAS to HSA using a J-815 CD spectrometer equipped with a PMT detector (JASCO, Tokyo, Japan). The protein concentration was set at 1 × 10^−6 mol/L, with a fixed HSA-to-PFAS concentration ratio of 1:18. The scanning rate was set to 100 nm/min with 0.5 nm increments, and the photometric mode of HT. Each sample was scanned three times. The blank buffer control was automatically subtracted during the scanning process. All tests were carried out at 298 K. The CONTIN analysis method from the DichroWeb was employed to determine the contents of the protein’s secondary structure.

HSA [3] = biological target: T1, HSA; assay: 3D-EEM fluorescence spectra of HSA–PFAS; conditions: HSA 1 × 10^−6, PFAS 1.8 × 10^−5 mol·L^−1; for 3D-EEM Peak A Intensity F: HSA alone 673.66; for 3D-EEM Peak B Intensity F: HSA alone 996.906
Protocol: The 3D-EEM spectra were recorded using specific scanning parameters at the scanning rate of 2400 nm·min^−1, an […] with 5 nm increments, and an emission of 280–550 nm with 2 nm increments. The concentrations of PFAS and HSA were set at 18 × 10^−6 mol·L^−1 and 1 × 10^−6 mol·L^−1, respectively.

[4] = biological target: T2, Human Serum Albumin (HSA) (Homo sapiens, UniProt P02768); assay: Fluorescence quenching of HSA by PFAS (Stern–Volmer, double logarithmic and Van't Hoff analysis); assay type: binding; conditions: for quenching of HSA fluorescence intensity: PFAS 1.8 × 10^−5 mol·L^−1, HSA 1 × 10^−6 mol·L^−1, 298 K; for ΔH / ΔS: Van't Hoff, 298–310 K; for affinity for HSA: fluorescence quenching experiments; for main interaction force from thermodynamic analysis: signs of ΔH and ΔS
T2 construct: HSA (≥96%) and six PFAS were all purchased from Aladdin Chemicals (Shanghai, China); purchased Aladdin Chemicals (Shanghai, China)
T2 sequence (P02768 25-609): as above
Protocol: Fluorescence quenching experiments greatly benefit studies on the interactions between ligands and proteins. Initially, 3 mL of HSA stock solution was put into a 10 mm square quartz cuvette. Following that, PFAS stock solution was gradually added to achieve various final concentrations, namely 0, 3, 6, 9, 12, 15, 18 × 10^−6 mol·L^−1. By incrementally increasing the molar ratio of PFAS vs. HSA up to 18, their binding characteristics can be better investigated.
A thermostat (TR-01A, Bishui Corp, Beijing, China) was used to precisely control the solution temperature, which was set at 298, 304, and 310 K. This device includes a temperature controller and a metal heating cuvette module in conjunction with a fluorometer. This thermostat has a temperature range of 20–60 °C (293–333 K) and an accuracy of 0.1 °C Celsius. This step is critical for keeping the experimental conditions stable. Following that, the samples were fluorescence-scanned with a fluorometer (Cary Eclipse, Agilent, CA, USA). The excitation wavelength was set at 275 nm to efficiently stimulate tryptophan (Trp) and tyrosine (Tyr) residues. Additional test parameters include an emission of 275–500 nm, scanning rate of 1200 nm/min and PTV voltage of 700 v. Fluorescence quenching experiments were repeated three times, and the average values were taken for further calculation.
Fluorescence internal filtration (IFE) refers to the phenomenon where the fluorescence intensity decreases during fluorescence measurement due to the absorption of excitation or emission light by sample components (small molecules or proteins) in solution [19, 20]. This phenomenon is more obvious in the samples with a high concentration of adsorbent. A fluorescence correction formula was used in this study to correct the IFE effect on the data, as follows: Fcorr=Fobs×10^Aex+Aem/2 where Fcorr and Fobs are corrected and observed fluorescence emission intensities, respectively, Aex and Aem are UV-vis absorbances at the excitation and emission wavelengths.
The quenching constant can be calculated using the Stern–Volmer Equation (3). The results are shown in Table 2 and Figure 1: F0/F=1+Kqτ0=1+KsvQ where F0 and F refer to HSA fluorescence intensities without and with the quencher (PFAS solution); Kq is the biomacromolecule’s quenching rate constant; τ0 is the average fluorescence lifetime of the fluorescent molecule when the quencher PFAS is absent, usually taken as 10^−8 s; [Q] is the PFAS concentration; Ksv is the Stern–Volmer quenching constant; F0/F is the vertical axis; the Stern–Volmer curves of this system are 298, 304, and 310 K.
The double logarithmic formula can be used to calculate the binding constants and binding site numbers of HSA–PFAS complexes: logF0−F/F=logKb+nlogQ where F0 and F are parameters representing the initial fluorescence intensity and the fluorescence intensity after adding PFAS, respectively. The binding characteristics are represented by the binding constant, Kb, and the number of binding sites, n. The slope of the straight line is the number of binding sites, n, and the binding constant Kb is obtained from the exponent of the straight line’s intercept using the double logarithmic graph. Figure A2 and Table 2 show the calculation results.
The enthalpy change (∆H), entropy change (∆S), and free energy change (∆G) calculated from the Van’t Hoff equation [50] can be used to determine the type of interaction. lnKb=−ΔH/RT+ΔS/R ΔG=ΔH−TΔS=−RTlnKb where R represents the ideal gas constant (8.314 J·mol^−1·K^−1).

O=C(O)C(F)(F)C(F)(F)C(F)(F)C(F)(F)C(F)(F)C(F)(F)C(=O)O [DFSA, Dodecafluorosuberic Acid]
φ (rate of decrease in Kb) (HSA [1]; ibuprofen probe): 25.4% | φ (rate of decrease in Kb) (HSA [1]; lidocaine probe): 31.7% | φ (rate of decrease in Kb) (HSA [1]; warfarin probe): 93.3% | HSA secondary structure: β-Sheet (HSA [2]): 4.0% | HSA secondary structure: β-Turn (HSA [2]): 15.8% | HSA secondary structure: Random Coil (HSA [2]): 37.0% | HSA secondary structure: α-Helix (HSA [2]): 43.2% | 3D-EEM Peak A Position λex/λem (HSA [3]): 280/336 | 3D-EEM Peak B Position λex/λem (HSA [3]): 230/330 | 3D-EEM Peak A Intensity F (HSA [3]): 629.75 a.u. | 3D-EEM Peak B Intensity F (HSA [3]): 839.38 a.u. | fluorescence quenching mechanism [4]: static quenching | quenching of HSA fluorescence intensity [4]: 9.7% | KSV (Stern–Volmer quenching constant) ([4]; T = 298 K): 0.58 ± 0.06 × 10^4 L·mol^−1 | n (number of binding sites) ([4]; T = 298 K): 0.88 ± 0.02 | ΔG ([4]; T = 298 K): -4.338 kcal/mol | Kq (quenching rate constant) ([4]; T = 298 K, τ0 taken as 10^−8 s): 0.58 ± 0.06 × 10^12 L·mol^−1·s^−1 | KSV (Stern–Volmer quenching constant) ([4]; T = 304 K): 0.51 ± 0.04 × 10^4 L·mol^−1 | n (number of binding sites) ([4]; T = 304 K): 0.98 ± 0.05 | ΔG ([4]; T = 304 K): -5.136 kcal/mol | Kq (quenching rate constant) ([4]; T = 304 K, τ0 taken as 10^−8 s): 0.51 ± 0.04 × 10^12 L·mol^−1·s^−1 | KSV (Stern–Volmer quenching constant) ([4]; T = 310 K): 0.45 ± 0.05 × 10^4 L·mol^−1 | n (number of binding sites) ([4]; T = 310 K): 1.13 ± 0.07 | ΔG ([4]; T = 310 K): -6.123 kcal/mol | Kq (quenching rate constant) ([4]; T = 310 K, τ0 taken as 10^−8 s): 0.45 ± 0.05 × 10^12 L·mol^−1·s^−1 | ΔH [4]: 40.031 ± 1.02 kcal/mol | ΔS [4]: 622.5 ± 15.3 J·mol^−1·K^−1 | affinity for HSA [4]: low affinity | main interaction force from thermodynamic analysis [4]: hydrophobic interactions

O=C(O)C(F)(OC(F)(F)C(F)(OC(F)(F)C(F)(F)C(F)(F)F)C(F)(F)F)C(F)(F)F (centres unmarked) [HFPO-TA, Perfluoro-2,5-dimethyl-3,6-dioxanonanoic Acid]
φ (rate of decrease in Kb) (HSA [1]; ibuprofen probe): 23.8% | φ (rate of decrease in Kb) (HSA [1]; lidocaine probe): 35.3% | φ (rate of decrease in Kb) (HSA [1]; warfarin probe): 99.6% | HSA secondary structure: β-Sheet (HSA [2]): 5.1% | HSA secondary structure: β-Turn (HSA [2]): 15.8% | HSA secondary structure: Random Coil (HSA [2]): 38.5% | HSA secondary structure: α-Helix (HSA [2]): 40.6% | 3D-EEM Peak A Position λex/λem (HSA [3]): 280/321 | 3D-EEM Peak B Position λex/λem (HSA [3]): 230/314 | 3D-EEM Peak A Intensity F (HSA [3]): 499.16 a.u. | 3D-EEM Peak B Intensity F (HSA [3]): 861.38 a.u. | fluorescence quenching mechanism [4]: mixed quenching | Kq (quenching rate constant) ([4]; 298 K): 1.78e+12 L/mol/s | quenching of HSA fluorescence intensity [4]: 25.1% | KSV (Stern–Volmer quenching constant) ([4]; T = 298 K): 1.78 ± 0.09 × 10^4 L·mol^−1 | n (number of binding sites) ([4]; T = 298 K): 1.49 ± 0.03 | ΔG ([4]; T = 298 K): -8.956 kcal/mol | Kq (quenching rate constant) ([4]; T = 298 K, τ0 taken as 10^−8 s): 1.78 ± 0.09 × 10^12 L·mol^−1·s^−1 | KSV (Stern–Volmer quenching constant) ([4]; T = 304 K): 1.95 ± 0.13 × 10^4 L·mol^−1 | n (number of binding sites) ([4]; T = 304 K): 1.78 ± 0.07 | ΔG ([4]; T = 304 K): -11.03 kcal/mol | Kq (quenching rate constant) ([4]; T = 304 K, τ0 taken as 10^−8 s): 1.95 ± 0.13 × 10^12 L·mol^−1·s^−1 | KSV (Stern–Volmer quenching constant) ([4]; T = 310 K): 1.98 ± 0.08 × 10^4 L·mol^−1 | n (number of binding sites) ([4]; T = 310 K): 2.09 and 2.09 ± 0.08 | ΔG ([4]; T = 310 K): -13.28 kcal/mol | Kq (quenching rate constant) ([4]; T = 310 K, τ0 taken as 10^−8 s): 1.98 ± 0.08 × 10^12 L·mol^−1·s^−1 | ΔH [4]: 98.506 ± 2.02 kcal/mol | ΔS [4]: 1508.3 ± 30.8 J·mol^−1·K^−1 | HSA fluorescence peak position after PFAS addition (blue shift from 337 nm) ([4]; as the concentration of PFAS increases): 315 nm | affinity for HSA [4]: high affinity | main interaction force from thermodynamic analysis [4]: hydrophobic interactions

O=C(O)C(F)(F)C(F)(F)C(F)(F)C(F)(F)C(F)(F)C(F)(F)F [PFHpA, Perfluoroheptanoic Acid]
φ (rate of decrease in Kb) (HSA [1]; ibuprofen probe): 42.7% | φ (rate of decrease in Kb) (HSA [1]; lidocaine probe): 48.8% | φ (rate of decrease in Kb) (HSA [1]; warfarin probe): 98.9% | HSA secondary structure: β-Sheet (HSA [2]): 5.5% | HSA secondary structure: β-Turn (HSA [2]): 15.5% | HSA secondary structure: Random Coil (HSA [2]): 39.4% | HSA secondary structure: α-Helix (HSA [2]): 39.6% | 3D-EEM Peak A Position λex/λem (HSA [3]): 280/336 | 3D-EEM Peak B Position λex/λem (HSA [3]): 230/335 | 3D-EEM Peak A Intensity F (HSA [3]): 656.89 a.u. | 3D-EEM Peak B Intensity F (HSA [3]): 997.01 a.u. | fluorescence quenching mechanism [4]: static quenching | quenching of HSA fluorescence intensity [4]: 12.1% | KSV (Stern–Volmer quenching constant) ([4]; T = 298 K): 0.69 ± 0.05 × 10^4 L·mol^−1 | n (number of binding sites) ([4]; T = 298 K): 0.96 ± 0.04 | ΔG ([4]; T = 298 K): -4.986 kcal/mol | Kq (quenching rate constant) ([4]; T = 298 K, τ0 taken as 10^−8 s): 0.69 ± 0.05 × 10^12 L·mol^−1·s^−1 | KSV (Stern–Volmer quenching constant) ([4]; T = 304 K): 0.53 ± 0.07 × 10^4 L·mol^−1 | n (number of binding sites) ([4]; T = 304 K): 1.42 ± 0.06 | ΔG ([4]; T = 304 K): -7.968 kcal/mol | Kq (quenching rate constant) ([4]; T = 304 K, τ0 taken as 10^−8 s): 0.53 ± 0.07 × 10^12 L·mol^−1·s^−1 | KSV (Stern–Volmer quenching constant) ([4]; T = 310 K): 0.32 ± 0.04 × 10^4 L·mol^−1 | n (number of binding sites) ([4]; T = 310 K): 1.50 ± 0.05 | ΔG ([4]; T = 310 K): -8.332 kcal/mol | Kq (quenching rate constant) ([4]; T = 310 K, τ0 taken as 10^−8 s): 0.32 ± 0.04 × 10^12 L·mol^−1·s^−1 | ΔH [4]: 77.672 ± 3.399 kcal/mol | ΔS [4]: 1166.7 ± 42.7 J·mol^−1·K^−1 | affinity for HSA [4]: low affinity | main interaction force from thermodynamic analysis [4]: hydrophobic interactions
